Literature values, collected in patent publication US7166295B1, “Methods of treatment and diagnostic visualization, particularly in cancer” (priority 1995, dated 2007).

Details: incorporated in liposomes, injected intraperitoneally into mice; compared with injection of the respective free drug

SMILES	concentration of drug in the plasma, spleen and lymphoid tissue relative to the free drug
CCCCCCCC/C=C\CCCCCCCC(=O)OCC(COP(=O)(O)OC[C@@H]1CCC(n2ccc(N)nc2=O)O1)OC(=O)CCCCCCC/C=C\CCCCCCCC (some centres unmarked) [DOP-ddc, Dioleoyl-phospathidyl-ddc]	increased concentration of drug in the plasma, spleen and lymphoid tissue
CCCCCCCCCCCCCCCC(=O)OCC(COP(=O)(O)OCC1OC(n2cc(C)c(=O)[nH]c2=O)CC1N=[N+]=[N-])OC(=O)CCCCCCCCCCCCCCC (centres unmarked) [DPP-AZT, Dipalmitoyl-phosphatidyl-3′-Azido-3′-deoxythymidine]	increased concentration of drug in the plasma, spleen and lymphoid tissue
